The values that follow come from patent publication US8536201B2, “Pesticidal arylpyrrolidines” (Bayer Intellectual Property GmbH, priority 2009, dated 2013).

Format in all cases: in vivo
The test system of data set [1] is Ctenocephalides felis. Put plainly: Ctenocephalides felis test (CTECFE), blood feeding. The settings on record: 100 ppm in cattle blood; adult unfed fleas, after 2 days. The procedure:
BIOLOGICAL TEST EXAMPLE 7
Ctenocephalides felis—Test (CTECFE)
(§1) Solvent: Dimethyl Sulfoxide
To produce a suitable preparation of active compound, 10 mg of active compound are dissolved in 0.5 ml solvent, and the concentrate is diluted with cattle blood to the desired concentration. Approximately 20 adult unfed (Ctenocephalides felis) are placed in flea chambers. The blood chamber, sealed with parafilm on the bottom, are filled with cattle blood supplied with compound solution and placed on top of the flea chamber, so that the fleas are able to suck the blood. The blood chamber is heated to 37° C. whereas the flea chamber is kept at room temperature.
After 2 days mortality in % is determined. 100% means that all the fleas have been killed; 0% means that none of the fleas have been killed.

Data set [2] has as its system Tetranychus urticae. Put plainly: Two-spotted spider mite Tetranychus urticae spray test on kidney bean. The settings on record: adult mites, after 7 days. How it is done:
BIOLOGICAL TEST EXAMPLE 2
Two-Spotted Spider Mite Tetranychus urticae
50 to 100 adult mites of Tetranychus urticae were inoculated to leaves of kidney bean at two-leaf stage planted in a pot of 6 cm in diameter. After one day, test solution at the appropriate concentration was sprayed thereon in a sufficient amount using a spray gun. After the spraying, the plant pot was placed inside a greenhouse, and after 7 days, the acaricidal activity was calculated. An acaricidal activity of 100% means that all mites were killed, an acaricidal activity of 0% means that no mite was killed.

The subject of data set [3] is Aulacophora femoralis. Put plainly: Cucurbit leaf beetle (Aulacophora femoralis) cucumber leaf dip test. The settings on record: second instar larvae, treated cucumber leaves, after 7 days. The procedure:
BIOLOGICAL TEST EXAMPLE 3
Cucurbit Leaf Beetle (Aulacophora femoralis)
Leaves of cucumber were immersed in the test solution at the appropriate concentration, and the leaves were dried in air. The leaves were then put in a plastic cup containing sterilized black soil and five Aulacophora femoralis at second instar larvae were released in the cup. The cups were placed in a temperature-controlled chamber at 25° C. After 7 days, the number of dead larvae was counted, and thus the insecticidal activity was calculated. An insecticidal activity of 100% means that all larvae were killed, whereas an insecticidal activity of 0% means that no larva was killed.

Data set [4] relates to Spodoptera litura. In words: Tobacco cutworm (Spodoptera litura) larvae using artificial diet. The settings on record: 20 ppm, 3rd-instar larvae. The procedure:
BIOLOGICAL TEST EXAMPLE 1.2
Tobacco Cutworm (Spodoptera litura) Larvae Using Artificial Diet
2.3 g of artificial diet powder is put into a PET cup (7.5 cm diameter, 4 cm depth). The powder was leveled to make a layer in the bottom of the cup. 5 ml of a chemical solution is poured onto the powder and spread uniformly. The cup with treated diet powder is placed quiet to let the diet jell. Into each testing cup five 3rd-instar larvae were released. The testing cup is closed with the lid and placed in a temperature-controlled room at 25° C. and 50-60% R.H., 16L8D lighting conditions.
The mortality in % was determined according to the following criteria:
1 larva dead: 20% Efficacy
5 larvae dead: 100% Efficacy

Data set [5] deals with Spodoptera litura. In words: Tobacco cutworm (Spodoptera litura) larvae, sweet potato leaf dip test. The settings on record: 20 ppm; third instar larvae, treated sweet potato leaves, after 7 days. The procedure: Unless not mentioned otherwise, the test solutions were prepared as follows:
Solvent: dimethyl formamide, 3 parts by weight
Emulsifier: polyoxyethylene alkyl phenyl ether, 1 part by weight
To prepare the test solution, 1 part by weight of an active compound is mixed with the above-mentioned amount of solvent containing the above-mentioned amount of emulsifier, and the mixture is diluted with water to the desired concentration.
BIOLOGICAL TEST EXAMPLE 1.1
Tobacco Cutworm (Spodoptera litura) Larvae
Leaves of sweet potato were immersed in the test solution at the appropriate concentration, and the leaves were dried in air. The leaves were then placed in a petri dish having a diameter of 9 cm, and ten Spodoptera litura at third instar larvae were released therein. The petri dishes were placed in a temperature-controlled chamber at 25° C. After 2 days and 4 days more sweet potato leaves were added. After 7 days, the number of dead larvae was counted to calculate the insecticidal activity. An insecticidal activity of 100% means that all larvae were killed, whereas an insecticidal activity of 0% means that no larva was killed. In the current test, the results of two petri dishes for each treatment were averaged.

Data set [6] concerns Musca domestica. In words: Musca domestica test. The settings on record: 100 ppm; adults, sugar/compound sponge, after 2 days. The procedure: BIOLOGICAL TEST EXAMPLE 9
as §1
To produce a suitable preparation of active compound, 10 mg of active compound are dissolved in 0.5 ml solvent, and the concentrate is diluted with water to the desired concentration. Prior to the assay, a piece of kitchen sponge is soaked with a mixture of sugar and compound solution and placed into a container. 10 adults (Musca domestica) are placed into the container and closed with a perforated lid.
After 2 days mortality in % is determined. 100% means that all the flies have been killed; 0% means that none of the flies have been killed.

Data set [7] deals with Boophilus microplus. In words: Boophilus microplus (dip). The settings on record: 100 ppm; adult engorged females immersed one minute, after 7 days. The procedure:
BIOLOGICAL TEST EXAMPLE 5
Boophilus microplus (Dip)
as §1
To produce a suitable preparation of active compound, 10 mg of active compound are dissolved in 0.5 ml solvent, and the concentrate is diluted with water to the desired concentration. Eight to ten adult engorged female Boophilus microplus ticks are placed in perforated plastic beakers and immersed in aqueous compound solution for one minute. Ticks are transferred to a filter paper in a plastic tray. Egg deposition of fertile eggs is monitored after. After 7 days mortality in % is determined. 100% means that all the ticks have been killed; 0% means that none of the ticks have been killed.

On to `CCC(=O)NC(C)c1ccc(N2CCC(c3cc(Cl)cc(Cl)c3)(C(F)(F)F)C2)cc1` (racemic) [Compound 2], for which, in data set [1], the “activity (mortality in %)” value is 95%. Besides, the insecticidal activity in data set [2] (100 ppm), in data set [3] (20 ppm), in data set [4] and in data set [5] was 100% throughout.
For the compound `CCC(=O)NC(C)c1ccc(N2CCC(c3cc(C(F)(F)F)cc(C(F)(F)F)c3)(C(F)(F)F)C2)cc1` (racemic) [Compound 10], the insecticidal activity in data set [2] (20 ppm), in data set [3] (20 ppm), in data set [4] and in data set [5] was 100% in each case. The “activity (mortality in %)” value in data set [6] was 90%.
As for `CCC(=O)N[C@H](C)c1ccc(N2CCC(c3cc(C(F)(F)F)cc(C(F)(F)F)c3)(C(F)(F)F)C2)cc1` (stereo partly shown) [Compound 10-a], the “activity (mortality in %)” value in data set [1] was determined as 90%. Besides, the insecticidal activity in data set [3] (20 ppm) worked out at 100%.
Turning to `CC(=O)N[C@@H](C)c1ccc(N2CCC(c3cc(Cl)cc(Cl)c3)(C(F)(F)F)C2)cc1` (stereo partly shown) [Compound 1-b], the insecticidal activity in data set [2] (100 ppm), in data set [3] (20 ppm), in data set [4] and in data set [5] was 100% throughout.
As for `C[C@H](NC(=O)C1CC1)c1ccc(N2CCC(c3cc(Cl)cc(C(F)(F)F)c3)(C(F)(F)F)C2)cc1` (stereo partly shown) [Compound 5-b], the insecticidal activity in data set [2] (20 ppm), in data set [3] (20 ppm), in data set [4] and in data set [5] was 100% each time.
In the case of `C[C@H](NC(=O)C1CC1)c1ccc(N2CCC(c3cc(Cl)c(Cl)c(Cl)c3)(C(F)(F)F)C2)cc1` (stereo partly shown) [Compound 8-b], the “activity (mortality in %)” value in data set [1] is reported as 95%. The insecticidal activity in data set [2] (20 ppm), in data set [3] (20 ppm), in data set [4] and in data set [5] was 100% in each case.
For `COCCC(=O)NC(C)c1ccc(N2CCC(c3cc(Cl)c(Cl)c(Cl)c3)(C(F)(F)F)C2)cc1` (racemic) [Compound 14], in data set [1], the “activity (mortality in %)” value is 90%. Moreover, the insecticidal activity in data set [2] (20 ppm), in data set [3] (100 ppm) and in data set [4] was 100% each time.
As for `COCCC(=O)N[C@@H](C)c1ccc(N2CCC(c3cc(C(F)(F)F)cc(C(F)(F)F)c3)(C(F)(F)F)C2)cc1` (stereo partly shown) [Compound 15-b], the “activity (mortality in %)” value in data set [7] turned out to be 80%. In addition, the insecticidal activity in data set [2] (20 ppm), in data set [3] (100 ppm) and in data set [4] was 100% throughout.
As for `CC(NC(=O)C1CC1)c1ccc(N2CCC(c3cc(Cl)cc(C(F)(F)F)c3)(C(F)(F)F)C2)cc1` (racemic) [Compound 5], the insecticidal activity in data set [2] (20 ppm), in data set [3] (20 ppm), in data set [4] and in data set [5] was 100% each time.
`CCC(=O)N[C@H](C)c1ccc(N2CCC(c3cc(Cl)c(Cl)c(Cl)c3)(C(F)(F)F)C2)cc1` (stereo partly shown) [Compound 7-a]: the “activity (mortality in %)” value in data set [1] was 80%. The compound further showed an insecticidal activity in data set [3] (100 ppm) of 100%.
On to `CCC(=O)N[C@@H](C)c1ccc(N2CCC(c3cc(Cl)c(Cl)c(Cl)c3)(C(F)(F)F)C2)cc1` (stereo partly shown) [Compound 7-b], for which the insecticidal activity in data set [2] (20 ppm), in data set [3] (20 ppm), in data set [4] and in data set [5] was 100% throughout.
For `CC(NC(=O)C1CC1)c1ccc(N2CCC(c3cc(C(F)(F)F)cc(C(F)(F)F)c3)(C(F)(F)F)C2)cc1` (racemic) [Compound 11], the insecticidal activity in data set [2] (20 ppm), in data set [3] (20 ppm), in data set [4] and in data set [5] was 100% each time.
On to `CCC(=O)NC(C)c1ccc(N2CCC(c3cc(Cl)cc(C(F)(F)F)c3)(C(F)(F)F)C2)cc1` (racemic) [Compound 4], for which the insecticidal activity in data set [2] (20 ppm), in data set [3] (20 ppm), in data set [4] and in data set [5] was 100% each time.
With `CC(NC(=O)C1CC1)c1ccc(N2CCC(c3cc(Cl)c(Cl)c(Cl)c3)(C(F)(F)F)C2)cc1` (racemic) [Compound 8], the insecticidal activity in data set [2] (20 ppm), in data set [3] (20 ppm), in data set [4] and in data set [5] was 100% throughout. Besides, the “activity (mortality in %)” value in data set [6] is on record as 90%.
As to `CCC(=O)N[C@@H](C)c1ccc(N2CCC(c3cc(C(F)(F)F)cc(C(F)(F)F)c3)(C(F)(F)F)C2)cc1` (stereo partly shown) [Compound 10-b], the insecticidal activity in data set [2] (20 ppm), in data set [3] (20 ppm), in data set [4] and in data set [5] was 100% throughout.
For `CC(NC(=O)CC1CC1)c1ccc(N2CCC(c3cc(Cl)c(Cl)c(Cl)c3)(C(F)(F)F)C2)cc1` (racemic) [Compound 12], the “activity (mortality in %)” value in data set [1] was found to be 95%. Moreover, the insecticidal activity in data set [2] (20 ppm) and in data set [4] was 100% in each case.
Consider `C[C@H](NC(=O)C1CC1)c1ccc(N2CCC(c3cc(Cl)cc(Cl)c3)(C(F)(F)F)C2)cc1` (stereo partly shown) [Compound 3-b], for which the insecticidal activity in data set [2] (20 ppm), in data set [3] (20 ppm), in data set [4] and in data set [5] was 100% each time.
In the case of `CC(=O)N[C@@H](C)c1ccc(N2CCC(c3cc(C(F)(F)F)cc(C(F)(F)F)c3)(C(F)(F)F)C2)cc1` (stereo partly shown) [Compound 9-b], the insecticidal activity in data set [3] (20 ppm), in data set [4] and in data set [5] was 100% throughout. Moreover, in data set [6], the “activity (mortality in %)” value stood at 90%.
For the compound `CC(NC(=O)C1CC1)c1ccc(N2CCC(c3cc(Cl)cc(Cl)c3)(C(F)(F)F)C2)cc1` (racemic) [Compound 3], the insecticidal activity in data set [2] (20 ppm), in data set [3] (20 ppm), in data set [4] and in data set [5] was 100% each time. The “activity (mortality in %)” value in data set [6] is listed as 90%.
